Assay results from patent publication US12310946B2, “Pharmaceutical composition for oral administration of edaravone and method of administering same” (MITSUBISHI TANABE PHARMA CORPORATION, priority 2020, dated 2025).
Read-outs that look alike come from different tables or passages of the source.

Legend:
[1] = Clinical study #2: PK of edaravone oral formulation (formula #2), fasted vs 4 h after high-fat meal; format: in vivo; conditions: male, human, plasma, 100 mg, 100 mg oral, mean (n = 9)
Protocol: Effects of meal consumption before administration of the edaravone oral formulation on the pharmacokinetics of edaravone were evaluated. Specifically, clinical studies #1, #2, and #3 described below were conducted on separate days in Japanese healthy adult male subjects. In each of clinical studies #1, #2, and #3, one dose each of edaravone oral formulations (edaravone suspensions) of formulas #1, #2, and #3 shown in Table 1 below were used respectively and administered orally once during the study period. For each clinical study, a reference study was conducted (reference example), in which the edaravone oral formulation was administered in fasted conditions as described below, and in each clinical study and the corresponding reference study, the edaravone oral formulation was each administered to the same subjects.
For the high-fat meal, a meal with total calories per meal of 800 to 1000 kilocalories and calorie intake from lipid of 50% was used. For the standard meal, a meal with total calories per meal of 400 to 500 kilocalories and calorie intake from lipid of 25% was used. For the light meal, a liquid-type nutritional supplement with total calories per meal of 250 kilocalories (enteral nutritional supplement: Ensure Liquid (trade name)) was used.
The edaravone oral formulation (formula #2) was administered orally to the subjects 4 hours after high-fat meal consumption. Blood samples were each collected before the administration, and 5 minutes, 15 minutes, 30 minutes, 1 hour, 1.5 hours, 2 hours, 4 hours, 6 hours, 8 hours, 12 hours, 24 hours, 36 hours, and 48 hours after the administration, and the concentrations of unchanged edaravone in plasma were measured. On the other hand, as a reference example, the edaravone oral formulation was administered orally to the same subjects in fasted conditions, blood samples were collected, and the concentrations of unchanged edaravone in plasma were measured in the same manner. For the administration in fasted conditions, the edaravone oral formulation was administered orally after a lapse of 10 hours or longer from the previous meal consumption. None of the subjects consumed a next meal until the blood sample collection 4 hours after the administration was completed.

[2] = Clinical study #9: PK of edaravone oral formulation (formula #3) in healthy adults (reference group), oral, fasted; format: in vivo; conditions: both sexes, human, plasma, 105 mg oral, healthy (n = 42), mean, before weight correction
Protocol: On the other hand, a clinical study #9 shown below was conducted in healthy adult male and female subjects (42 in total) (the reference group). That is, the edaravone oral formulation of the formula #3 was administered orally to the reference group in fasted conditions after a lapse of 10 hours or longer. Then, blood samples were each collected before the administration, and 5 minutes, 15 minutes, 30 minutes, 45 minutes, 1 hour, 1.5 hours, 2 hours, 4 hours, 6 hours, 8 hours, 10 hours, 12 hours, 24 hours, 36 hours, and 48 hours after the administration, and the concentrations of unchanged edaravone in plasma were measured.
The resulting PK parameters were corrected for body weight of each subject adjusted to 70 kg by a proportional calculation for each of the patient group and the reference group. In addition, the results of the PK parameters after correction of the patient group are shown as box-whisker plots of #9 (the reference group), and individual plots of #5 (the patient group) and #9 (the reference group) in FIG. 3. In FIG. 3, X represents a mean value. […] Thus, the difference in the Cmax and the difference in the AUC before weight correction between the patient group and the reference group seen in Table 9 below are considered due to the difference in body weight between the patient group and the reference group, and the difference in the Cmax and the difference in the AUC after weight correction between the patient group and the reference group observed in FIG. 3 are each considered to be within the range of error.

[3] = Clinical Trial #12: PK after oral administration of edaravone solution and suspension; conditions: male, human, in vivo, fasting (N = 6), mean; for AUC(0-t): read-out: AUC0-24 h
Protocol: Whether or not there is an influence on pharmacokinetics by administering in forms of a solution and a suspension when administering edaravone orally was evaluated. Specifically, Clinical Trial #12 described below was conducted on healthy adult Japanese male subjects. Administration during the trial period was a single oral administration.
Either an edaravone solution containing 60 mg of edaravone or an edaravone suspension containing 120 mg of edaravone was orally administered to subjects in a fasting state of 10 hours or longer since the last meal intake. The 60 mg or 120 mg of edaravone was dissolved or suspended in 50 mL or 10 mL of 0.1% polyvinyl alcohol solution, respectively. The edaravone solution or suspension of the respective content was administered to each of six subjects.

[4] = Caco-2 cell monolayer membrane permeability test; conditions: human, Caco-2, pH 7.4
Protocol: (§1) Caco-2 cells were seeded on a 24-well plate, cultured at 37° C. for 21 to 23 days in a CO2 incubator, and then a Caco-2 cell monolayer membrane permeability test was conducted. After checking the membrane resistance value of the cell layer after the culture, the culture medium in the plate was replaced with HBSS (pH 7.4). […] For the control compounds, [^3H]propranolol as a high membrane permeability control and [^14C]mannitol as a low membrane permeability control were used.

[5] = system: Caco-2 cells; experiment: Caco-2 cell monolayer membrane permeability test
Protocol: as §1

[6] = formula #2, 4 h after high-fat meal

AUC(0-inf) [1, 6]: 1250 ng·h/mL | Cmax [1, 6]: 1010 ng/mL | Tmax [1, 6]: 28.2 min | half-life [1, 6]: 460 min | AUC(0-inf) ([1]; formula #2, fasted): 1650 ng·h/mL | Cmax ([1]; formula #2, fasted): 1810 ng/mL | Tmax ([1]; formula #2, fasted): 21.6 min | half-life ([1]; formula #2, fasted): 560 min | AUC(0-inf) [2]: 1760 ng·h/mL | Cmax [2]: 1660 ng/mL | Tmax [2]: 26.4 min | Cmax ([3]; Cohort S1, 60 mg, Solution): 755 ng/mL | AUC(0-t) ([3]; Cohort S1, 60 mg, Solution): 816 ng·h/mL | Cmax ([3]; Cohort S2, 120 mg, Suspension): 1740 ng/mL | AUC(0-t) ([3]; Cohort S2, 120 mg, Suspension): 2240 ng·h/mL | Papp A→B at 2 h, 100 μmol/L [4]: 32 ± 1.7 ×10⁻⁶ cm/s | permeability classification under Biopharmaceutics Classification System ([5]; based on Caco-2 membrane permeability test): high permeability compound
SMILES: CC1=NN(c2ccccc2)C(=O)C1 [Edaravone, 3-methyl-1-phenyl-2-pyrazolin-5-one]
membrane permeability relative to high permeability control ([5]; Caco-2, vs propranolol): equal to or higher than that of propranolol
